Data published in patent US4231928A, “Antibacterial agents” (priority 1979, dated 1980).
Like-named read-outs stand apart in the source and are kept apart here.

Key:
[1] = tested on: Pseudomonas aeruginosa; assay: Serial twofold agar dilution (Mueller-Hinton agar), P. aeruginosa; type: cell-based; details: Pseudomonas aeruginosa, Mueller-Hinton agar, read-out: MIC
Description: (§1) The Minimum Inhibitory Concentrations (MIC) for sodium 6-[D-(-)-α-phenyl-α-(7-hydroxy-4-oxo-4H-pyrimido[1,2-b]pyridazin-3-ylcarboxamido)acetamido]penicillanate (BB-P598) and sulbenicillin were determined by the serial twofold agar dilution method using Steers' apparatus on Mueller-Hinton agar plates against 31 test organisms for the primary screening (Table 1) and also against 61 strains of Pseudomonas aeruginosa for the secondary evaluation (Table 2).
(§2) Minimum Inhibitory Concentrations (MIC) for sodium 6-[D-(-)-α-phenyl-α-(7-hydroxy-4-oxo-4H-pyrimido[1,2-b]pyridazin-3-ylcarboxamido)acetamido]pencillanate (BB-P598), sodium 6-[D-(-)-α-(4-hydroxyphenyl)-α-(7-hydroxy-4-oxo-4H-pyrimido[1,2-b]pyridazin-3-ylcarboxamido)acetamido]-penicillanate (BB-P642) and carbenicillin were determined by the serial twofold agar dilution method using Steers' apparatus on Mueller-Hinton agar plates against 31 tests organisms (Table 8) and also against 61 strains of Pseudomonas aeruginosa (Table 9). In terms of mean % relative activity compared with carbenicillin, compounds BB-B598 and BB-P642 were 856% and 1319% as active as carbenicillin against the 61 Pseudomonas strains of Table 9.

[2] = tested on: S. enteritidis; assay: Serial twofold agar dilution (Mueller-Hinton agar), S. enteritidis; type: cell-based
Description: as §1, §2

[3] = tested on: E. cloacae; assay: Serial twofold agar dilution (Mueller-Hinton agar), E. cloacae; type: cell-based; details: Enterobacter cloacae
Description: as §1, §2

[4] = tested on: Pseudomonas sp.; assay: Serial twofold agar dilution (Mueller-Hinton agar), Pseudomonas sp.; type: cell-based
Description: as §1, §2

[5] = tested on: S. aureus; assay: Serial twofold agar dilution (Mueller-Hinton agar), S. aureus; type: cell-based; details: Staphylococcus aureus
Description: as §1, §2

[6] = tested on: P. vulgaris; assay: Serial twofold agar dilution (Mueller-Hinton agar), P. vulgaris; type: cell-based
Description: as §1, §2

[7] = tested on: K. pneumoniae; assay: Serial twofold agar dilution (Mueller-Hinton agar), K. pneumoniae; type: cell-based
Description: as §1, §2

[8] = Mouse blood levels after subcutaneous administration; details: in vivo, sc, 20 mg/kg
Description: Mouse blood levels of BB-[…] and BB-[…] were determined by subcutaneous administration of 20 mg/kg of the penicillin to groups of three mice. Blood samples collected from orbital sinuses were assayed by the paper disk agar-diffusion method on Sarcina lutea PC1 1001 plates.

[9] = tested on: P. mirabilis; assay: Serial twofold agar dilution (Mueller-Hinton agar), P. mirabilis; type: cell-based; details: Proteus mirabilis, P. mirabilis A9900, Mueller-Hinton agar, read-out: MIC
Description: as §1, §2

[10] = tested on: S. marcescens; assay: Serial twofold agar dilution (Mueller-Hinton agar), S. marcescens; type: cell-based; details: Serratia marcescens
Description: as §1, §2

[11] = tested on: E. coli; assay: Serial twofold agar dilution (Mueller-Hinton agar), E. coli; type: cell-based; details: Escherichia coli
Description: as §1, §2

[12] = tested on: Klebsiella sp.; assay: Serial twofold agar dilution (Mueller-Hinton agar), Klebsiella sp.; type: cell-based; details: Klebsiella sp. A20452, Mueller-Hinton agar
Description: as §1, §2

CC1(C)S[C@@H]2[C@H](NC(=O)[C@H](NC(=O)c3cnc4ccc(O)nn4c3=O)c3ccccc3)C(=O)N2[C@H]1C(=O)O [BB-P598, sodium 6-[D-(-)-α-phenyl-α-(7-hydroxy-4-oxo-4H-pyrimido[1,2-b]pyridazin-3-ylcarboxamido)acetamido]penicillanate]
MIC ([1]; Pa-44 A21274, Table 2): 3.1 µg/mL
MIC ([1]; Pa-44 A21274, Table 9): 6.3 µg/mL
MIC ([1]; Pa-51 A9910, Table 2): 3.1 µg/mL
MIC ([1]; Pa-51 A9910, Table 9): 3.1 µg/mL
MIC ([1]; Pa-52 A9926, Table 2): 3.1 µg/mL
MIC ([1]; Pa-52 A9926, Table 9): 3.1 µg/mL
MIC ([1]; Pa-53 A20126, Table 2): 3.1 µg/mL
MIC ([1]; Pa-53 A20126, Table 9): 3.1 µg/mL
MIC ([1]; Pa-54 A20128, Table 2): 3.1 µg/mL
MIC ([1]; Pa-54 A20128, Table 9): 3.1 µg/mL
MIC ([1]; Pa-55 A20227, Table 2): 3.1 µg/mL
MIC ([1]; Pa-55 A20227, Table 9): 3.1 µg/mL
MIC ([1]; Pa-56 A20228, Table 2): 3.1 µg/mL
MIC ([1]; Pa-56 A20228, Table 9): 3.1 µg/mL
MIC ([1]; Pa-57 A20546, Table 2): 3.1 µg/mL
MIC ([1]; Pa-57 A20546, Table 9): 3.1 µg/mL
MIC ([1]; Pa-58 A20557, Table 2): 6.3 µg/mL
MIC ([1]; Pa-58 A20557, Table 9): 6.3 µg/mL
MIC ([1]; Pa-59 A20574, Table 2): 6.3 µg/mL
MIC ([1]; Pa-59 A20574, Table 9): 1.6 µg/mL
MIC ([1]; Pa-60 A20602, Table 2): 1.6 µg/mL
MIC ([1]; Pa-60 A20602, Table 9): 1.6 µg/mL
MIC ([1]; Pa-61 A20726, Table 2): 6.3 µg/mL
MIC ([1]; Pa-61 A20726, Table 9): 3.1 µg/mL
MIC ([1]; Pa-62 A21213, Table 2): 12.5 µg/mL
MIC ([1]; Pa-62 A21213, Table 9): > 100 µg/mL
MIC ([1]; Pa-64 A21336, Table 2): 3.1 µg/mL
MIC ([1]; Pa-64 A21336, Table 9): 1.6 µg/mL
MIC ([1]; Pa-65 A21428, Table 2): 1.6 µg/mL
MIC ([1]; Pa-65 A21428, Table 9): 1.6 µg/mL
MIC ([1]; Pa-66 A21434, Table 2): 3.1 µg/mL
MIC ([1]; Pa-66 A21434, Table 9): 3.1 µg/mL
MIC ([1]; Pa-67 A21509, Table 2): 6.3 µg/mL
MIC ([1]; Pa-67 A21509, Table 9): 6.3 µg/mL
MIC ([1]; Pa-68 A21510, Table 2): 6.3 µg/mL
MIC ([1]; Pa-68 A21510, Table 9): 3.1 µg/mL
MIC ([1]; Pa-69 A21587, Table 2): 12.5 µg/mL
MIC ([1]; Pa-69 A21587, Table 9): 6.3 µg/mL
MIC ([1]; Pa-70 K-PS102 (KR-102), Table 9): 3.1 µg/mL
MIC ([1]; Pa-70 K-Ps102 (CR-102), Table 2): 3.1 µg/mL
MIC ([2]; S. enteritidis A9531, Table 1): 6.3 µg/mL
MIC ([2]; Salmonella enterica, S. enteritidis A9531, Table 8, read-out: MIC): 6.3 µg/mL
MIC ([3]; E. cloacae A9656, Table 1): 25 µg/mL
MIC ([3]; E. cloacae A9656, Table 8): 25 µg/mL
MIC ([3]; E. cloacae A9657, Table 1): 50 µg/mL
MIC ([3]; E. cloacae A9657, Table 8): 100 µg/mL
MIC ([3]; E. cloacae A9659, Table 1): 25 µg/mL
MIC ([3]; E. cloacae A9659, Table 8): 25 µg/mL
MIC ([4]; Pseudomonas sp. A20358, Table 1, read-out: MIC): 1.6 µg/mL
MIC ([4]; Pseudomonas sp. A20358, Table 8): 1.6 µg/mL
MIC ([5]; S. aureus A15097, Table 8, read-out: MIC): > 100 µg/mL
MIC ([5]; S. aureus A20239, Table 8, read-out: MIC): 25 µg/mL
MIC ([5]; S. aureus A20240, Table 8, read-out: MIC): 12.5 µg/mL
MIC ([5]; S. aureus A20701, Table 8, read-out: MIC): > 100 µg/mL
MIC ([5]; S. aureus BX-1633 A9606, Table 1, read-out: MIC): 6.3 µg/mL
MIC ([5]; S. aureus BX-1633 A9606, Table 8, read-out: MIC): 50 µg/mL
MIC ([5]; S. aureus BX-1633 A15097, Table 1, read-out: MIC): 100 µg/mL
MIC ([5]; S. aureus BX-1633 A20240, Table 1, read-out: MIC): 6.3 µg/mL
MIC ([5]; S. aureus BX-1633 A20701, Table 1, read-out: MIC): > 100 µg/mL
MIC ([5]; S. aureus Smith A9537, Table 1, read-out: MIC): 1.6 µg/mL
MIC ([5]; S. aureus Smith A9537, Table 8, read-out: MIC): 1.6 µg/mL
MIC ([5]; S. aureus Smith A20239, Table 1): 25 µg/mL
MIC ([6]; P. vulgaris A9539, Table 1): 25 µg/mL
MIC ([6]; Proteus vulgaris, P. vulgaris A9539, Table 8, read-out: MIC): 25 µg/mL
MIC ([7]; K. pneumoniae A9977, Table 1): 12.5 µg/mL
MIC ([7]; Klebsiella pneumoniae, K. pneumoniae A9977, Table 8, read-out: MIC): 12.5 µg/mL
concentration at 0.25 h [8]: 3570 ng/mL
concentration at 0.5 h [8]: 900 ng/mL
MIC ([9]; Table 1): 0.2 µg/mL
MIC ([9]; Table 8): 6.3 µg/mL
MIC ([10]; S. marcescens A20019, Table 1): 100 µg/mL
MIC ([10]; S. marcescens A20019, Table 8): 50 µg/mL
MIC ([11]; E. coli A9635, Table 8, read-out: MIC): 12.5 µg/mL
MIC ([11]; E. coli A9844, Table 8, read-out: MIC): 6.3 µg/mL
MIC ([11]; E. coli A20366, Table 8, read-out: MIC): > 100 µg/mL
MIC ([11]; E. coli A20520, Table 8, read-out: MIC): 3.1 µg/mL
MIC ([11]; E. coli A20664, Table 8, read-out: MIC): 0.8 µg/mL
MIC ([11]; E. coli A20732, Table 8, read-out: MIC): 50 µg/mL
MIC ([11]; E. coli A20898, Table 8, read-out: MIC): > 100 µg/mL
MIC ([11]; E. coli Juhl A9435, Table 1): 12.5 µg/mL
MIC ([11]; E. coli Juhl A9844, Table 1, read-out: MIC): 3.1 µg/mL
MIC ([11]; E. coli Juhl A15119, Table 1, read-out: MIC): 12.5 µg/mL
MIC ([11]; E. coli Juhl A15119, Table 8, read-out: MIC): 12.5 µg/mL
MIC ([11]; E. coli Juhl A20366, Table 1, read-out: MIC): > 100 µg/mL
MIC ([11]; E. coli Juhl A20520, Table 1, read-out: MIC): 1.6 µg/mL
MIC ([11]; E. coli Juhl A20664, Table 1, read-out: MIC): 0.8 µg/mL
MIC ([11]; E. coli Juhl A20732, Table 1, read-out: MIC): 100 µg/mL
MIC ([11]; E. coli Juhl A20898, Table 1, read-out: MIC): > 100 µg/mL
MIC ([11]; E. coli NIHJ, Table 1, read-out: MIC): 0.8 µg/mL
MIC ([11]; E. coli NIHJ, Table 8, read-out: MIC): 3.1 µg/mL
MIC ([12]; Table 1, read-out: MIC): 25 µg/mL
MIC ([12]; Table 8, read-out: MIC): 12.5 µg/mL
